Reference: publication PMC11584639 (Nature Communications, 2024)

Biological target: Bruton's tyrosine kinase (BTK) (Mus musculus, UniProt P35991)
Format: cell-based

Bruton's tyrosine kinase (BTK), sequence (P35991 2-659): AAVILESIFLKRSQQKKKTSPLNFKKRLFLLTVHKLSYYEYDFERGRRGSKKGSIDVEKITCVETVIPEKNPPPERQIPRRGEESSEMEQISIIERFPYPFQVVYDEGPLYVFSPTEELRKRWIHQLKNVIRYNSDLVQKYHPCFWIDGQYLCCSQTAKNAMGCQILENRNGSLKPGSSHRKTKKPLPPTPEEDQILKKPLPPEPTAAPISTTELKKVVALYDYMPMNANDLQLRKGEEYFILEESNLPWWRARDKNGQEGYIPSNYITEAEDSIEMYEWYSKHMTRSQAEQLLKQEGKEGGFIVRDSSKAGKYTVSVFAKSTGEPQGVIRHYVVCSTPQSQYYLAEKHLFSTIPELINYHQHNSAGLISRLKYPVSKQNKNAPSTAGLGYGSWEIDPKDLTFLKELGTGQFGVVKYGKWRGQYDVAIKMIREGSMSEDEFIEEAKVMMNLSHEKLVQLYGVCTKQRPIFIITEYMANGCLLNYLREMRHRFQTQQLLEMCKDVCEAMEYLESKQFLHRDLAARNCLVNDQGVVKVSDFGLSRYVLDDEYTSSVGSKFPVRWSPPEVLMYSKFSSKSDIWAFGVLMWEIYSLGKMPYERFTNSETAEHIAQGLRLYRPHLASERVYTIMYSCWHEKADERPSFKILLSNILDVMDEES

## C=CC(=O)N1CCC[C@@H](n2c(=O)n(-c3ccc(Oc4ccccc4)cc3)c3c(N)nccc32)C1 [tolebrutinib]
  pBTK-to-BTK ratio by Western blot in primary mouse microglia with or without com: This stimulus increased BTK phosphorylation, which was blocked by tolebrutinib
